# Measurements as given in US4847293A, “Tetraenyl prostaglandins” (priority 1988, dated 1989).
# How the values were obtained:
# Diarrhea Assay = format: in vivo, male Charles River rats; settings: in vivo
# diarrhea = experiment: Diarrhea Assay; format: in vivo, male Charles River rats
SMILES,"TD50 (Diarrhea Assay; Rat (iv) per table head, method text: intragastric, fasted rats, up to eight hours, read-out: Diarrhea Assay Rat (iv) ED50) [mg/kg]","Diarrhea Assay Rat (iv), result in words (diarrhea; Rat (iv), at 3200 mcg/kg)","selectivity ratio (Diarrhea Assay; ratio of rat diarrhea ED50 to Pavlov pouch antisecretory ED50, read-out: Thrapeutic Index ED50 diarrhea/ED50 antisecretory)","Diarrhea Assay Rat (iv) ED50 (diarrhea; Rat (iv) per table head, method text: intragastric, fasted rats, up to eight hours) [mg/kg]"
COC(=O)CC/C=C\CC[C@H]1C(=O)C[C@@H](O)[C@@H]1/C=C/CC(C)(O)/C=C/C=C(C)C (relative stereo) [Example 2],3.2,inactive,,
"COC(=O)CC/C=C\CC[C@H]1C(=O)C[C@@H](O)[C@@H]1/C=C/CC(C)(O)/C=C/C1=CCCC1 (relative stereo) [Example 1, methyl 7-[3α-hydroxy-2β-(4-hydroxy-4-methyl-6-(1'-cyclopentenyl)-1,5-trans,trans-hexadienyl)-5-oxocyclopentane]-1-α-hept-4-cis-enoate]",,,160000,3.2
